Measured values: patent publication US7803930B2, “Antisense modulation of apolipoprotein B-expression” (Isis Pharmaceuticals, Inc., priority 2002, dated 2010)
e = 2'-O-(2-methoxyethyl) (MOE); d = 2'-deoxy (DNA)

Test system: human apolipoprotein B mRNA
Assay: Inhibition of human apolipoprotein B mRNA levels in HepG2 cells, quantitative real-time PCR
Assay type: cell-based
Settings: HepG2 cells; for % inhibition of apolipoprotein B mRNA levels: normalized to untreated control, average of two experiments
How it was run: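 Apolipoprotein B transcript was quantified by one-step TaqMan RT-PCR, normalized to GAPDH or RiboGreen RNA, and expressed as percent inhibition against an untreated-sample standard curve. HepG2 cells were harvested 16-24 h after oligonucleotide exposure, which was delivered with 3.75 μg/mL Lipofectin over 4-7 h at 80% confluency.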

[1] = 50 nm oligonucleotide, variable deoxy gap position
[2] = 150 nm oligonucleotide, variable deoxy gap position
[3] = Table 17 variable gap, 50 nM, averages from three experiments
[4] = Table 17 variable gap, 150 nM, averages from three experiments

Substance	% Change in apolipoprotein B mRNA expression (10 nM, 24 hour (Table 41))	% Change in apolipoprotein B mRNA expression (50 nM, 24 hour (Table 41))	% Change in apolipoprotein B mRNA expression (150 nM, 24 hour (Table 41))	% Change in apolipoprotein B mRNA expression (50 nM, 24 hour (Table 40))	% Change in apolipoprotein B mRNA expression (150 nM, 24 hour (Table 40))	also measured
308658 (antisense AGGTTACCAGCCACATGCAG; 9-10-1 2'-MOE gapmer, phosphorothioate, chemistry not fully specified) [compound 308658]						% inhibition of apolipoprotein B mRNA levels (12.5 nM oligonucleotide): 29%; % inhibition of apolipoprotein B mRNA levels (37 nM oligonucleotide): 61%; % inhibition of apolipoprotein B mRNA levels (75 nM oligonucleotide): 73%; % inhibition of apolipoprotein B mRNA levels (150 nM oligonucleotide): 78%; % inhibition of apolipoprotein B mRNA levels (300 nM oligonucleotide): 90%; % INHIB 50 nm [1]: 86%; % INHIB 150 nm [2]: 78%
308659 (antisense GCCTCAGTCTGCTTCGCACC; 9-10-1 2'-MOE gapmer, phosphorothioate, chemistry not fully specified) [compound 308659]						% INHIB 50 nm [1]: 70%; % INHIB 150 nm [2]: 93%
308660 (antisense TGGTAGCCTCAGTCTGCTTC; 2-10-8 2'-MOE gapmer, phosphorothioate, chemistry not fully specified) [compound 308660]						% INHIB 50 nm [1]: 72%; % INHIB 150 nm [2]: 92%
308661 (antisense AGTCTGCTTCGCGCCTTCTG; 2-10-8 2'-MOE gapmer, phosphorothioate, chemistry not fully specified) [compound 308661]						% INHIB 50 nm [3]: 70%; % INHIB 150 nm [4]: 91%
308662 (antisense TGGTAGCCTCAGTCTGCTTC; 8-10-2 2'-MOE gapmer, phosphorothioate, chemistry not fully specified) [compound 308662]						% INHIB 50 nm [1]: 76%; % INHIB 150 nm [2]: 83%
308663 (antisense AGTCTGCTTCGCGCCTTCTG; 8-10-2 2'-MOE gapmer, phosphorothioate, chemistry not fully specified) [compound 308663]						% INHIB 50 nm [3]: 44%; % INHIB 150 nm [4]: 84%
331022 (antisense GCCTCAGTCTGCTTCGCAC; sugars from the 5' end e5 d10 e4, all phosphorothioate, methylation of C not given here) [compound 331022]	−33%	−49%	−87%			
332769 (antisense GCCTCAGTCTGCTTCGCACC; all 2'-MOE, all phosphorothioate, methylation of C not given here) [compound 332769]				−11%	−14%	
332770 (antisense GCCTCAGTCTTCTTCGCACC; sugars from the 5' end e5 d10 e5, all phosphorothioate, methylation of C not given here) [compound 332770]				+7%	−22%	
332771 (antisense GCCTCAGTCTTATTCGCACC; sugars from the 5' end e5 d10 e5, all phosphorothioate, methylation of C not given here) [compound 332771]				+37%	+37%	
332772 (antisense GCCTCAGTATTATTCGCACC; sugars from the 5' end e5 d10 e5, all phosphorothioate, methylation of C not given here) [compound 332772]				+99%	+84%	
332773 (antisense GCCTCATTATTATTCGCACC; sugars from the 5' end e5 d10 e5, all phosphorothioate, methylation of C not given here) [compound 332773]				+75%	+80%	
332774 (antisense GCCTCATTATTATTAGCACC; sugars from the 5' end e5 d10 e5, all phosphorothioate, methylation of C not given here) [compound 332774]				+62%	+66%	
332775 (antisense GCCTCATTATTATTATCACC; sugars from the 5' end e5 d10 e5, all phosphorothioate, methylation of C not given here) [compound 332775]				−1%	+10%	
332776 (antisense GCCTAATTATTATTATCACC; sugars from the 5' end e5 d10 e5, all phosphorothioate, methylation of C not given here) [compound 332776]				+10%	+20%	
332777 (antisense GCCTCAGTCTGCTTCGCA; sugars from the 5' end e5 d10 e3, all phosphorothioate, methylation of C not given here) [compound 332777]	−27%	−53%	-80%			
332778 (antisense GCCTCAGTCTGCTTC; sugars from the 5' end e5 d10, linkages s4 o1 s9 (s phosphorothioate, o phosphodiester), methylation of C not given here) [compound 332778]	−11%	−20%	−58%			
332780 (antisense CCTCAGTCTGCTTCGCAC; sugars from the 5' end e4 d10 e4, all phosphorothioate, methylation of C not given here) [compound 332780]	−3%	−43%	−74%			
332781 (antisense CTCAGTCTGCTTCGCA; sugars from the 5' end e3 d10 e3, all phosphorothioate, methylation of C not given here) [compound 332781]	−9%	−35%	−60%			
332782 (antisense TCAGTCTGCTTCGC; all phosphorothioate, sugars by position and methylation of C not given here; 2'-MOE wings flank a DNA gap) [compound 332782]	−16%	−16%	−69%			
332784 (antisense GCCTCAGTCT; linkages s4 o1 s4 (s phosphorothioate, o phosphodiester), sugars by position and methylation of C not given here; 2'-MOE wings flank a DNA gap) [compound 332784]	+12%	−1%	+7%			
332785 (antisense GCTTCGCACC; linkages s4 o1 s4 (s phosphorothioate, o phosphodiester), sugars by position and methylation of C not given here; 2'-MOE wings flank a DNA gap) [compound 332785]	+5%	−2%	−4%			
